Reference: patent US8039501B2, “Synephrine derivatives useful as anti-inflammatory agents” (Universiteit Gent, priority 2005, dated 2011)
Residues, ends and D or L forms follow the SMILES beside them. *: point of attachment. Cbz = O=C(OCc1ccccc1)*

Columns and labels:
B-CLL cells = test: Annexin V/PI flow cytometric analysis of apoptosis in ex-vivo cultured B-CLL cells; assay type: cell-based, human; details: 24 hours
Experimental: Blood samples were obtained from B-CLL patients after informed consent according to institutional guidelines. CLL lymphocytes were isolated using Lymphoprep (Nycomed Pharma, Denmark) and re-suspended at a final concentration of 10−30×10^6 cells/ml in RPMI 1640 medium, supplemented with 10% heat-inactivated fetal bovine serum (FBS) (Greiner Bio-one, Wemmel, Belgium), 100 IU/ml penicillin, 100 μg/ml streptomycin, and 0.56 μg/mL fungizone (Gibco BRL, Merelbeke, Belgium). B-CLL cells were cultured in Dulbecco's Modified Eagle Medium (DMEM) (Gibco, Invitrogen Inc.) containing 10% FBS (Gibco, Invitrogen Inc.). For flow cytometric analysis of apoptosis, B-CLL cells were treated with the different compounds for 24 hours, 3×10^5 cells were removed from the culture medium, washed twice with cold PBS, and double stained with annexin V-fluorescein isothiocyanate (FITC) and propidium iodide (PI; Beckman Coulter, Miami, Fla.) in Annexin binding buffer, followed by analysis on a FC500PTM (Beckman Coulter, Nyon, Switzerland) flow cytometer. Flow cytometric data were analyzed using Cytomixs RXP software (Beckman Coulter, Nyon, Switzerland). To avoid non-specific fluorescence from dead cells, live cells were gated using forward and side scatter.
One of the early signs of apoptosis is the translocation of the membrane phospholipid phosphatidylserine from the cytoplasmic interface to the extracellular surface. Annexin V has a high affinity for the phospatidylserine-containing phospholipid bilayers. […] As the plasma membrane becomes increasingly permeable during the later stages of apoptosis, the DNA-binding dye PI can readily move across the cell membrane and bind to cellular DNA, providing a means to detect the loss of membrane integrity through mechanisms including necrosis. Three different cell populations can be observed in cells double-stained with AnnV-FITC and PI. […] Cells that stain with Ann V only are early apoptotic cells. And cells that stain with both AnnV and PI are late apoptotic/necrotic cells. The percentage of AnnV-positive B-CLL cells in the lymphocyte gate were measured by FACS and results were expressed as % apoptotic cells, i.e. sum of early apoptotic (AnnV+, PI−), and late apoptotic/dead cells (AnnV+, PI+). The percent of living cells was normalized to 100% living cells incubated in control medium with 0.1% EtOH. All measurements were made in duplicate and averaged.

[1] = system: A549 human lung epithelial cells; test: MTT test, cell viability of A549 cells; assay type: cell-based
Experimental: (§1) The MTT test is a standard assay addressing cell toxicity of a compound. It is based on the principle that after 3-4 hours of cell incubation with MTT (3-(4,5-dimethylthiazole-2-yl)-2,5-diphenyl tetrazolium bromide) so-called purple formazan crystals develop in living and early apoptotic cells. Dead cells don't produce formazan crystals.
(§2) Different cell lines were tested. Unless indicated differently, A549 human lung epithelial cells (derived from lung carcinoma) and L929sA murine fibroblast cells were cultured in DMEM with 10% FCS, 100 U/ml penicillin and 100 μg/ml streptomycin. Unless indicated differently, the human multiple myeloma cell lines L363, U266 and MM1.S were cultured in RPMI 1640 with Glutamax-I, supplemented with 10% FCS, 100 U/ml penicillin and 100 μg/ml streptomycin. Cells were seeded at 5000 cells/well (for adherent A549 and L929sA cells) or at 10000 cells/well (for the multiple myeloma lines in suspension) in 96 well plates. Cells were incubated in the presence of the respective synephrine compounds or vehicle (EtOH; for control test) in a final volume of 0.2 ml for 24 or 48 hours at 37° C. Subsequently, 20 μl of MTT solution (5 mg/ml in phosphate-buffered saline) was added to each well. After 4 hours incubation at 37° C., 80 μl of the extraction buffer (10% SDS, 0.01 M HCl) was added. After overnight incubation at room temperature, the optical densities at 590 nm were measured. Results are illustrated in FIGS. 2 to 6 and are expressed as percentage of viable cells as compared to vehicle-treated controls.
(§3) In a further MTT test, the activity of the synephrine derivatives on the inhibition of cell viability of non-immune cells was measured. […] Tests were performed for 24 hours and for 48 hours. The results are illustrated by FIGS. 5A and 5B for L929 cells, and by FIGS. 6A and 6B for A549 cells. It was observed that CpdA at 10^−5 M blocked cell viability of L929sA and A549 for not more than 10%.

[2] = system: multiple myeloma cells U266; test: MTT test, cell viability of U266 cells; assay type: cell-based, human; details: 10^−4 M, 10% FCS, FIG. 3A; for cytotoxicity at 100 µM: Homo sapiens, U-266, read-out: Block of U266 cell viability / cell killing
Experimental: as §1, §2
(§4) The MTT test was further extended to include alternative synephrine derivatives and a range of multiple myeloma cell lines for which the results are illustrated by FIGS. 3A, 3B and 4A. Human multiple myeloma cell lines L363, U266 and MM1.S were cultured in RPMI 1640 with Glutamax-I, supplemented with 10% FCS, 100 U/ml penicillin and 100 μg/ml streptomycin. Cells were seeded at 10000 cells/well in 96 well plates. Cells were incubated in the presence of test compounds or vehicle in a final volume of 0.2 ml for 24 or 48 hours at 37° C. The test compounds included in the test were the synephrine derivatives CpdA, Naphth, Benz and Isobut, and DEX as a comparative example. Subsequently, 20 μl of MTT solution (5 mg/ml in phosphate-buffered saline) was added to each well. After 4 hours incubation at 37° C., 80 μl of the extraction buffer (10% SDS, 0.01 M HCl) was added. After 48 hours incubation at room temperature, the optical densities at 590 nm were measured. Results are expressed as percentage of viable cells as compared to vehicle-treated controls.

L363 cell line = test: MTT test, cell viability of L363 cells; assay type: cell-based, human; details: 10% FCS, FIG. 3B; for Cell killing of L363 cells: 10^−5 M; for cytotoxicity at 100 µM: Homo sapiens, L-363, read-out: Block of L363 cell viability
Experimental: as §1, §2, §4

MM1.S cell line = test: MTT test, cell viability of MM1.S cells; assay type: cell-based, human; details: 10% FCS, FIG. 4A
Experimental: as §1, §2, §4

[3] = system: pE-selectin-Luc (E-selectin promoter); test: pE-selectin-Luc reporter gene assay in TNF-induced L929sA cells; assay type: cell-based, mouse; details: indicated concentrations, from -2 hours for 8 hours; TNF 2000 IU/ml 6 hours; FIG. 1
Excerpt: L929sA mouse fibroblast cells were stably transfected with pE-selectine-Luc (also referred to as pELAM-luc) by the calcium phosphate precipitation procedure described by De Bosscher et al. in Proc. Natl. Acad. Sci. USA (1997) 94, 13504-13509. The co-transfected plasmid pPGKβGeobpA, conferring resistance to G418 and expressing constitutive β-galactosidase enzymatic activity, was used as an internal control. L929sA cells were transiently transfected by the DEAE-dextran transfection method described by De Bosscher et al. (cited supra).
Recombinant murine tumor necrosis factor (TNF) was produced according to a method standard in the art. Dexamethasone (hereinafter abbreviated as DEX) commercially available from Sigma, and 2-(4-acetoxyphenyl)-2-chloro-N-methyl-ethylammonium chloride (hereinafter abbreviated as compound A) was synthesized according to Louw et al. in Biochemical Pharmacology (1997) 53, 189-197). A stock solution was prepared in ethanol (for DEX) or DMSO (for both comparative compound A and for the compound of example 6 according to this invention, i.e. 1-[4-(benzoyloxy)phenyl]-2-[(tert-butoxy-carbonyl)-methylamino]ethyl-1H-imidazole-1-carboxylate), aliquoted and stored at −70° C.
Induction was performed in triplicate for each independent experiment, which was carried out at least twice. Induction with DEX, compound A, and for the compound of example 6 according to this invention at 1 μM, 10 μM or respectively any other indicated concentration were performed at −2 hours for a total of 8 hours, while TNF (2000 IU/ml) was added at time point zero and left on the cells for 6 hours. After induction, cells were lysed with a lysis buffer (commercially available from Tropix, Bedford, Massachussets) and samples were assayed according to the manufacturer's instructions (Promega Biotech).
In order to investigate whether the inhibitory effect of compound A or the compound of example 6 according to this invention is directed at the transcriptional level of NF-κB-driven genes, the NF-κB-dependent physiological promoter construct, pE-selectin-Luc stably integrated into L929sA cells, was tested. […] DEX-mediated and compound A-mediated inhibition of TNF-induced gene expression were used as controls (FIG. 1). In the appended figures, NI stands for non-induced (either in presence of solvent controls like ethanol or DMSO).

MM1.S cell lines = test: Annexin V/PI assay in MM1.S cells; assay type: cell-based, human; details: positive control, FIG. 13
Experimental: 1. […] Procedure: • Human multiple myeloma cell lines L363, U266, MM1.S and MMR.1 are cultured in RPMI 1640 with Glutamax-I, supplemented with 10% FCS, 100 U/ml penicillin and 100 μg/ml streptomycin. Cells are counted and resuspended in fresh medium at a concentration of 1×10^6/ml. Next, 1 ml of cell suspension is transferred to 5 ml culture tubes in the presence of test compounds (DEX, CpdA, CpdA analogues: 10^−7 to 10^−4 M) or vehicle (EtOH) and incubated for 24 or 48 hours at 37° C. • Double-staining of the cells with PI and annexin V is performed according to the instructions of the Annexin V kit (BD Biosciences). • Double-stained cells are analyzed by flow cytometry. […] Graphs are represented as the ratio of early apoptotic cells versus late apoptotic cells (a) or as total % of living cells (b).

[4] = MTT test, cell viability of A549 cells; assay type: cell-based, human; details: human, A549 lung epithelial (carcinoma) cells; 10^−5 M; 48 hours; FIG. 6B; read-out: Block of A549 cell viability
Experimental: as §1, §2, §3

[5] = MTT test, cell viability of L929sA fibroblasts; assay type: cell-based, murine; details: mouse, L929sA fibroblast cells; 10^−5 M; within 48 hours; FIG. 5B; read-out: Block of L929sA cell viability
Experimental: as §1, §2, §3

Nc1nc(F)nc2c1ncn2[C@@H]1O[C@H](CO)[C@@H](O)[C@@H]1O [Fludarabine]
% apoptotic cells, CLL patient 1 (B-CLL cells; 5 · 10^−6M): 56%
% apoptotic cells, CLL patient 2 (B-CLL cells; 5 · 10^−6M): 63%

CN(CC(OC(=O)n1ccnc1)c1ccc(OC(=O)c2cccc3ccccc23)cc1)C(=O)OC(C)(C)C (centres unmarked) [Naphth, 1-[4-(1-naphthoyloxy)phenyl]-2-[(tert-butyloxycarbonyl)(methyl)amino]ethyl 1H-imida-zole-1-carboxylate]
Block of A549 cell viability ([1]; 10^−4 M, 48 hours, FIG. 6B): 20%
Block of A549 cell viability ([1]; 10^−5 M, 24 hours, FIG. 6A): about 10%
Block of A549 cell viability ([1]; 10^−5 M, 48 hours, FIG. 6B): not more than 20%
Block of U266 cell viability / cell killing [2]: 70%
Block of L363 cell viability (L363 cell line; 10^−4 M): 90%
Cell killing of L363 cells (L363 cell line): 40%
Inhibition of MM1.S cell viability (MM1.S cell line; 10^−4 M): almost completely
Inhibition of MM1.S cell viability (MM1.S cell line; 10^−5 M): about 35%

CCCCCC(=O)Oc1ccc(C(O)CN(C)C(=O)OC(C)(C)C)cc1 (centres unmarked) [example 6, 4-{2-[(tert-butoxycarbonyl)(methyl)amino]-1-hydroxyethyl}phenyl hexanoate]
Inhibition of TNF-induced gene expression (E-selectin gene induction) [3]: observed in a dose-responsive manner

CC(C)C[C@@H](C=O)NC(=O)[C@H](CC(C)C)NC(=O)[C@H](CC(C)C)NC(=O)OCc1ccccc1 [MG132, reference compound] (Cbz-Leu-Leu-Leu-aldehyde)
Apoptosis (Annexin V/PI staining) (MM1.S cell lines): also mediates apoptosis

O=C(O)CCCc1ccc(N(CCCl)CCCl)cc1 [Chlorambucil]
% apoptotic cells, CLL patient 1 (B-CLL cells; 25 · 10^−7M): 51%
% apoptotic cells, CLL patient 2 (B-CLL cells; 25 · 10^−7M): 46%

C[C@H]1C[C@@H]2[C@H]([C@@H](O)C[C@@]3(C)[C@H]2CC[C@]3(O)C(=O)COC(=O)CCC(=O)O)[C@@]2(C)C=CC(=O)C=C12 [Solumedrol]
% apoptotic cells, CLL patient 1 (B-CLL cells; 10^−7M): 60%
% apoptotic cells, CLL patient 2 (B-CLL cells; 10^−7M): 34%

CN(CC(OC(=O)n1ccnc1)c1ccc(OC(=O)c2ccccc2)cc1)C(=O)OC(C)(C)C (centres unmarked) [Benz, 1-[4-(benzoyloxy)phenyl]-2-[(tert-butoxycarbonyl)-methylamino]ethyl-1H-imidazole-1-carboxylate]
Block of A549 cell viability ([1]; 10^−5 M, 24 hours, FIG. 6A): not able to block cell viability
cytotoxicity at 48 h [4]: 10%
cytotoxicity at 48 h [5]: ≤ 20%
cytotoxicity at 100 µM [2]: 90%
Cell killing of L363 cells (L363 cell line): 40%
cytotoxicity at 100 µM (L363 cell line; 10^−4 M): 90%
Inhibition of MM1.S cell viability (MM1.S cell line; 10^−5 M): block cell viability completely
Inhibition of TNF-induced gene expression (E-selectin gene induction) [3]: effectively inhibit TNF-induced E-selectin gene induction

CC(C)C(=O)Oc1ccc(C(CN(C)C(=O)OC(C)(C)C)OC(=O)n2ccnc2)cc1 (centres unmarked) [Isobut, 1-[4-(isobutanoyloxy)phenyl]-2-[(tert-butoxycarbonyl)-methylamino]ethyl-1H-imidazole-1-carboxylate]
cytotoxicity at 100 µM [2]: 80%
Cell killing of L363 cells (L363 cell line): 25%
cytotoxicity at 100 µM (L363 cell line; 10^−4 M): 80%
Inhibition of MM1.S cell viability (MM1.S cell line; 10^−5 M): block cell viability completely
Inhibition of TNF-induced gene expression (E-selectin gene induction) [3]: effectively inhibit TNF-induced E-selectin gene induction
